Measured values: US6890886B2, “Agricultural compositions employing organosiloxanes containing polyhydric groups” (General Electric Company, priority 2000, dated 2005)

Experiments:
[1] = Aqueous surface tension (Cahn microbalance, sand blasted platinum blade); type: physicochemical; settings: 0.1 wt % in 0.005M NaCl water (deionized), 25° C.
Experimental: Surface tension was measured using a Cahn microbalance, with a sand blasted platinum blade as the sensor. Solutions of the various components were prepared at 0.1 wt % in 0.005M NaCl water (Deionized), as an equilibrium aid. Aqueous solutions of these unique compositions provide a significant reduction in surface tension relative to conventional surfactants.

[2] = Spreading of a 10 μL droplet of surfactant solution on polyester film; type: physicochemical; settings: 10 μL droplet on polyester film (3M, IR 1140), after 30 seconds
Experimental: Spreading was determined by applying a 10 μL droplet of surfactant solution to a polyester film (3M, IR 1140 transparency film) and measuring the spread diameter after 30 seconds. The solution was applied with an automatic pipette to provide droplets of reproducible volume. Deionized water that was further purified with a Millipore filtration system was used to prepare the surfactant solutions.

## Me3SiO[MeSi(C3H6O(C2H4O)8H)O]1SiMe3 [SIL-A]
[1]
  Surface Tension (mN/m): 21 mN/m
[2]; 0.1 wt% solution
  Spread Diameter (mm) 0.1 wt%: 44 mm
[2]; 0.2 wt% solution
  Spread Diameter (mm) 0.2 wt%: 42 mm
